≈ marks a conversion by molar mass, not a printed value.
Tested on: Septoria tritici (ATCC 26517)
Assay: Minimum Inhibitory Concentration (MIC) vs. Septoria tritici
Format: cell-based
Details: Zymoseptoria tritici, ATCC26517, 168 h; 50% reduction in growth of S. tritici; 22° C., seven days; read-out: Septoria Rating (MIC)
Procedure: C. Minimum Inhibitory Concentration (MIC) vs. Septoria tritici Compounds were assessed for their ability to inhibit the growth of a common strain of the fungal plant pathogen Septoria tritici (ATCC 26517) using a procedure based on a Clinical and Laboratory Standards Institute (CLSI) microdilution assay protocol for filamentous fungi. Stock solutions of the test compounds and standards were prepared in DMSO at 6400 μg/mL. Each stock solution was used to prepare a 2-fold dilution series ranging from 16 to 0.016 μg/mL (total of 11 compound concentrations) in RPMI-1640 (Roswell Park Memorial Institute) medium containing 3-(N-morpholino)propanesulfonic acid (MOPS) buffer and 2% DMSO. A 100 μL aliquot of the dilutions was added to columns 1 (16 μg/mL compound) through 11 (0.016 μg/mL compound) of a 96-well microtiter plate. This format was replicated in a second row of the microtiter plate. Thus, each microtiter plate could include 11 concentrations of four test or control compounds replicated twice. A 100 μL aliquot of RPMI-1640/MOPS/2% DMSO medium was added to column 12 (no compound control) of the microtiter plate. A fresh culture of S. tritici was used to prepare a solution of approximately 5×10^4 colony-forming units per milliliter (cfu/mL) in RPMI/MOPS medium without DMSO. A 100 μL aliquot of this solution was added to all 96 wells in the microtiter plate. […] The assay plates were incubated at 22° C. for seven days in the dark without shaking. […] In each case of Table 3, the Septoria rating scale is as follows: […]

Compound	MIC [µg/mL]
N#Cc1ccc(COc2ccc(C(F)(F)C(O)(Cn3ncnn3)c3ccc(F)cc3F)nc2)s1 (stereo not drawn) [Compound 74, 5-(((6-(2-(2,4-Difluorophenyl)-1,1-difluoro-2-hydroxy-3-(2H-tetrazol-2-yl)propyl)pyridin-3-yl)oxy)methyl)thiophene-2-carbonitrile]	> 4
N#Cc1ccc(Oc2ccc(C(F)(F)C(O)(Cn3ncnn3)c3ccc(Cl)cc3F)nc2)cc1F (stereo not drawn) [Compound 82, 4-((6-(2-(4-Chloro-2-fluorophenyl)-1,1-difluoro-2-hydroxy-3-(2H-tetrazol-2-yl)propyl)pyridin-3-yl)oxy)-2-fluorobenzonitrile]	> 4
CC(C)COc1ccc(C(F)(F)C(O)(Cn2ncnn2)c2ccc(Cl)cc2F)nc1 (stereo not drawn) [Compound 70, 2-(4-Chloro-2-fluorophenyl)-1,1-difluoro-1-(5-isobutoxypyridin-2-yl)-3-(2H-tetrazol-2-yl)propan-2-ol]	> 4
OC(Cn1ncnn1)(c1ccc(F)cc1F)C(F)(F)c1ccc(OCC2CC2)cn1 (stereo not drawn) [Compound 40, 1-(5-(Cyclopropylmethoxy)pyridin-2-yl)-2-(2,4-difluorophenyl)-1,1-difluoro-3-(2H-tetrazol-2-yl)propan-2-ol]	> 4
OC(Cn1ncnn1)(c1ccc(F)cc1F)C(F)(F)c1ccc(OCc2ccccn2)cn1 (stereo not drawn) [Compound 38, 2-(2,4-Difluorophenyl)-1,1-difluoro-1-(5-(pyridin-2-ylmethoxy)pyridin-2-yl)-3-(2H-tetrazol-2-yl)propan-2-ol]	> 4
OC(Cn1ncnn1)(c1ccc(F)cc1F)C(F)(F)c1ccc(OCc2ccccc2)cn1 (stereo not drawn) [Compound 31, 1-(5-(Benzyloxy)pyridin-2-yl)-2-(2,4-difluorophenyl)-1,1-difluoro-3-(2H-tetrazol-2-yl)propan-2-ol]	> 4
OC(Cn1cnnn1)(c1ccc(F)cc1F)C(F)(F)c1ccc(OCc2ncc(F)cc2F)cn1 (stereo not drawn) [Compound 60, 2-(2,4-Difluorophenyl)-1-(5-((3,5-difluoropyridin-2-yl)methoxy)pyridin-2-yl)-1,1-difluoro-3-(1H-tetrazol-1-yl)propan-2-ol]	1.5 to 4 (≈ 3.02 to 8.06 µM)
OC(Cn1ncnn1)(c1ccc(F)cc1F)C(F)(F)c1ccc(OCc2cc(F)cc(F)c2)cn1 (stereo not drawn) [Compound 36, 1-(5-((3,5-Difluorobenzyl)oxy)pyridin-2-yl)-2-(2,4-difluorophenyl)-1,1-difluoro-3-(2H-tetrazol-2-yl)propan-2-ol]	> 4
N#Cc1cccc(COc2ccc(C(F)(F)C(O)(Cn3ncnn3)c3ccc(F)cc3F)nc2)c1 (stereo not drawn) [Compound 53, 3-(((6-(2-(2,4-Difluorophenyl)-1,1-difluoro-2-hydroxy-3-(2H-tetrazol-2-yl)propyl)pyridin-3-yl)oxy)methyl)benzonitrile]	> 4
N#Cc1ccc(Oc2ccc(C(F)(F)C(O)(Cn3ncnn3)c3ccc(F)cc3F)nc2)c(F)c1 (stereo not drawn) [Compound 90, 4-((6-(2-(2,4-Difluorophenyl)-1,1-difluoro-2-hydroxy-3-(2H-tetrazol-2-yl)propyl)pyridin-3-yl)oxy)-3-fluorobenzonitrile]	1.5 to 4 (≈ 3.07 to 8.19 µM)
N#Cc1cccc(COc2ccc(C(F)(F)C(O)(Cn3ncnn3)c3ccc(F)cc3F)nc2)c1F (stereo not drawn) [Compound 68, 3-(((6-(2-(2,4-Difluorophenyl)-1,1-difluoro-2-hydroxy-3-(2H-tetrazol-2-yl)propyl)pyridin-3-yl)oxy)methyl)-2-fluorobenzonitrile]	1.5 to 4 (≈ 2.99 to 7.96 µM)

Now from value to compound:

MIC [µg/mL]	Compound
1.5 to 4 (≈ 3.08 to 8.22 µM)	N#Cc1ccc(Oc2ccc(C(F)(F)C(O)(Cn3ncnn3)c3ccc(Cl)cc3F)nc2)cc1 (stereo not drawn) [Compound 80, 4-((6-(2-(4-Chloro-2-fluorophenyl)-1,1-difluoro-2-hydroxy-3-(2H-tetrazol-2-yl)propyl)pyridin-3-yl)oxy)benzonitrile]
1.5 to 4 (≈ 2.89 to 7.71 µM)	N#Cc1ccc(CSc2ccc(C(F)(F)C(O)(Cn3ncnn3)c3ccc(F)cc3F)nc2)c(F)c1 (stereo not drawn) [Compound 16, 4-(((6-(2-(2,4-Difluorophenyl)-1,1-difluoro-2-hydroxy-3-(2H-tetrazol-2-yl)propyl)pyridin-3-yl)thio)methyl)-3-fluorobenzonitrile]
≤ 0.5	OC(Cn1cnnn1)(c1ccc(F)cc1F)C(F)(F)c1ccc(Oc2ccc(C(F)(F)F)nc2)cn1 (stereo not drawn) [Compound 111, 2-(2,4-difluorophenyl)-1,1-difluoro-3-(1H-tetrazol-1-yl)-1-(5-((6-(trifluoromethyl)pyridin-3-yl)oxy)pyridin-2-yl)propan-2-ol]
0.5 to 1.5 (≈ 1.01 to 3.03 µM)	OC(Cn1cnnn1)(c1ccc(F)cc1F)C(F)(F)c1cc(OCc2ccc(F)cc2F)ccn1 (stereo not drawn) [Compound 13, 1-(4-((2,4-Difluorobenzyl)oxy)pyridin-2-yl)-2-(2,4-difluorophenyl)-1,1-difluoro-3-(1H-tetrazol-1-yl)propan-2-ol]
0.5 to 1.5 (≈ 1.05 to 3.14 µM)	OC(Cn1cnnn1)(c1ccc(F)cc1F)C(F)(F)c1ccc(OCc2ccc(F)cc2)cn1 (stereo not drawn) [Compound 19, 2-(2,4-Difluorophenyl)-1,1-difluoro-1-(5-((4-fluorobenzyl)oxy)pyridin-2-yl)-3-(1H-tetrazol-1-yl)propan-2-ol]
1.5 to 4 (≈ 2.99 to 7.96 µM)	N#Cc1ccc(COc2ccc(C(F)(F)C(O)(Cn3ncnn3)c3ccc(F)cc3F)nc2)c(F)c1 (stereo not drawn) [Compound 58, 4-(((6-(2-(2,4-Difluorophenyl)-1,1-difluoro-2-hydroxy-3-(2H-tetrazol-2-yl)propyl)pyridin-3-yl)oxy)methyl)-3-fluorobenzonitrile]
1.5 to 4 (≈ 2.99 to 7.97 µM)	N#Cc1ccc(COc2ccc(C(F)(F)C(O)(Cn3ncnn3)c3ccc(Cl)cc3F)nc2)nc1 (stereo not drawn) [Compound 62, 6-(((6-(2-(4-Chloro-2-fluorophenyl)-1,1-difluoro-2-hydroxy-3-(2H-tetrazol-2-yl)propyl)pyridin-3-yl)oxy)methyl)nicotinonitrile]
≤ 0.5	CC#CCOc1ccc(C(F)(F)C(O)(Cn2cnnn2)c2ccc(Cl)cc2F)nc1 (stereo not drawn) [Compound 63, 1-(5-(But-2-yn-1-yloxy)pyridin-2-yl)-2-(4-chloro-2-fluorophenyl)-1,1-difluoro-3-(1H-tetrazol-1-yl)propan-2-ol]
1.5 to 4 (≈ 3.21 to 8.56 µM)	OC(Cn1cnnn1)(c1ccc(F)cc1F)C(F)(F)c1ccc(SCC(F)(F)F)cn1 (stereo not drawn) [Compound 18, 2-(2,4-Difluorophenyl)-1,1-difluoro-3-(1H-tetrazol-1-yl)-1-(5-((2,2,2-trifluoroethyl)thio)pyridin-2-yl)propan-2-ol]
≤ 0.5	OC(Cn1cnnn1)(c1ccc(F)cc1F)C(F)(F)c1ccc(Oc2nc3cc(Cl)ccc3s2)cn1 (stereo not drawn) [Compound 109, 1-(5-((5-chlorobenzo[d]thiazol-2-yl)oxy)pyridin-2-yl)-2-(2,4-difluorophenyl)-1,1-difluoro-3-(1H-tetrazol-1-yl)propan-2-ol]
≤ 0.5	OC(Cn1cnnn1)(c1ccc(F)cc1F)C(F)(F)c1ccc(Oc2ccc3ccccc3n2)cn1 (stereo not drawn) [Compound 108, 2-(2,4-difluorophenyl)-1,1-difluoro-1-(5-(quinolin-2-yloxy)pyridin-2-yl)-3-(1H-tetrazol-1-yl)propan-2-ol]
≤ 0.5	OC(Cn1cnnn1)(c1ccc(F)cc1F)C(F)(F)c1ccc(OCc2ccc(OCC(F)(F)F)cc2)cn1 (stereo not drawn) [Compound 20, 2-(2,4-Difluorophenyl)-1,1-difluoro-3-(1H-tetrazol-1-yl)-1-(5-((4-(2,2,2-trifluoroethoxy)benzyl)oxy)pyridin-2-yl)propan-2-ol]
≤ 0.5	OC(Cn1cnnn1)(c1ccc(F)cc1F)C(F)(F)c1ccc(OCc2ccc(Cl)cc2)cn1 (stereo not drawn) [Compound 4, 1-(5-(4-Chlorobenzyloxy)pyridin-2-yl)-2-(2,4-difluorophenyl)-1,1-difluoro-3-(1H-tetrazol-1-yl)propan-2-ol]

— patent US8748461B2, “Metalloenzyme inhibitor compounds” (Viamet Pharmaceuticals, Inc., priority 2011, dated 2014)
